Here are results for one molecule from patent US9512414B2, “Thermostable beta-glucosidase” (HONDA MOTOR CO., LTD., priority 2014, dated 2016).

SMILES strings stand for the structures.

The test system of the assay is thermostable β-glucosidase AR19G-228-1 (GH family 1), SEQ ID NO: 2, from hot spring soil metagenome AR19, expressed in E. coli. Description: Kinetics of PNPG hydrolysis by AR19G-228-1 β-glucosidase. Conditions: 100° C., acetate buffer pH 5.5. In kind it is biochemical. The text has this: The β-glucosidase activity using PNPG as a substrate of the enzyme protein (AR19G-228-1) encoded by the AR19G-228-1 gene was investigated. A solution prepared by dissolving PNPG (manufactured by Sigma-Aldrich Co. LLC.) in water and adjusting to a predetermined final concentration was used as the substrate solution. It should be noted that the PNPG substrate solutions used in the experiments described below all used the PNPG aqueous solution prepared by the above method. PNPG (manufactured by Sigma-Aldrich Co. LLC.) was used as the substrate for measuring the β-glucosidase activity. In the measurements, the purified enzyme obtained in section <7> above was diluted to a concentration of 0.0075 mg/mL with 0.05 M Tris-HCl buffer (pH 8.0) and used.
For the reaction at a temperature of 50 to 90° C., a Thermomixer (manufactured by the Eppendorf AG) was used, a sample tube with a volume of 1.5 mL was used as a reaction vessel, and the amount of reaction solution was set to 200 μL. The reaction solution was composed of 5 μL of diluted purified enzyme, 45 μL of purified water, 50 μL of 200 mM acetate buffer (pH 5.5), and 100 μL of 60 mM PNPG aqueous solution. […]
In all measurements, a mixed solution prepared by replacing the purified enzyme solution with 50 mM Tris-HCl buffer (pH 8.0) and then reacting the solution under the same conditions was used as a control. […] The amount of p-nitrophenol in the supernatant was determined by measuring the absorbance at 420 nm using a spectrophotometer, calculating the amount of p-nitrophenol in the supernatant using a calibration curve prepared with p-nitrophenol, and then determining the amount of p-nitrophenol produced by the enzymatic hydrolysis by the difference from the control. […] In addition, each measurement was performed for three independent experiments, and a mean value and a standard error were determined. […]

Usually Km stands for the substrate concentration at which the rate is half of its maximum.

For the molecule `O=[N+]([O-])c1ccc(O[C@@H]2O[C@H](CO)[C@@H](O)[C@H](O)[C@H]2O)cc1` [PNPG, p-nitrophenyl-β-D-glucopyranoside], where the note is “PNPG 0.5-100 mM”, the Michaelis constant (Km) is 4.5 mM and the Vmax is 430.3 U/mg. Moreover, under “PNPG, calculated from Vmax and Km”, the Kcat/Km is 91500 M⁻¹ s⁻¹.
